Measurements published in ChEMBL document CHEMBL4392879, “Secondary Metabolites of Onygenales Fungi Exemplified by Aioliomyces pyridodomos” (J Nat Prod, 2019).
Converted amounts (≈) assume the structure as drawn.

Test system: Histoplasma capsulatum
Experiment: Antifungal activity against Histoplasma capsulatum G217B after 10 to 14 days by microscopic method
Assay type: functional, organism-based

Row | SMILES | IC50 [µg/mL]
1 | C/C=C/C=C/c1c(CC=C(C)C)cc(CC=C(C)C)c(O)c1CO | 8 (≈ 24.5 µM)
2 | C/C=C/C=C/c1c(CC=C(C)C)cc2c(c1CO)OC(C)(C)C(O)C2=O (stereo unspecified) | 16 (≈ 44.9 µM)
3 | CC(C)=CCc1cc2c(c3c1[C@@H]1C[C@H](C3=O)[C@@H]1C)OC(C)(C)[C@H](O)C2=O | 64 (≈ 181 µM)
4 | CC(C)=CCc1cc2c(c3c1[C@@H]1C[C@H](C3=O)[C@@H]1C)OC(C)(C)[C@@H](O)C2=O | 32 (≈ 90.3 µM)
5 | C[C@@H]1[C@H](O)[C@@H](C)/C=C/C=C/C=C/C=C/C=C/C=C/C=C/[C@H](O[C@@H]2O[C@H](C)[C@@H](O)[C@H](N)[C@@H]2O)C[C@@H]2O[C@](O)(C[C@@H](O)C[C@@H](O)[C@H](O)CC[C@@H](O)C[C@@H](O)CC(=O)O[C@H]1C)C[C@H](O)[C@H]2C(=O)O [AMPHOTERICIN B] | 0.5 (≈ 0.541 µM)
6 | CCC(C)n1ncn(-c2ccc(N3CCN(c4ccc(OCC5COC(Cn6cncn6)(c6ccc(Cl)cc6Cl)O5)cc4)CC3)cc2)c1=O (stereo unspecified) [ITRACONAZOLE] | 0.001 (≈ 0.00142 µM)
